Reference: ChEMBL document CHEMBL1201862, “PubChem BioAssay data set” (2004)
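The compound was tested at five concentrations on cells cultured in 96-well plates, with a 48-hour exposure period. At the GI50, growth is halved.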 Activity calls are given as the source filed them. No stated cut-off is given here; in the data, active = GI50 up to about 1.1 µM and inactive = higher.

Key:
Assay in all cases: growth of human tumour cells (NCI), 48 h
786-0 = system: 786-0
COLO 205 = system: COLO 205
HL-60 = system: HL-60
IGROV-1 = system: IGROV-1
MOLT-4 = system: MOLT-4
OVCAR-8 = system: OVCAR-8
SF-295 = system: SF-295
SF-539 = system: SF-539
SK-MEL-2 = system: SK-MEL-2
SK-MEL-5 = system: SK-MEL-5
SK-OV-3 = system: SK-OV-3
SN12C = system: SN12C
SNB-75 = system: SNB-75
UACC-62 = system: UACC-62
UO-31 = system: UO-31
HOP-92 = system: HOP-92

SMILES	GI50 (786-0)	GI50 (COLO 205)	GI50 (HL-60)	GI50 (IGROV-1)	GI50 (MOLT-4)	GI50 (OVCAR-8)	GI50 (SF-295)	GI50 (SF-539)	GI50 (SK-MEL-2)	GI50 (SK-MEL-5)	GI50 (SK-OV-3)	GI50 (SN12C)	GI50 (SNB-75)	GI50 (UACC-62)	GI50 (UO-31)	GI50 (HOP-92)
C/C(=N\NC(N)=O)C(CN1CCCCC1)C(c1ccccc1)c1c(O)c2ccccc2oc1=O (centres undefined)	0.6 µM (active)	> 100 µM (inactive)	> 100 µM (inactive)	> 100 µM (inactive)	> 100 µM (inactive)	> 100 µM (inactive)	> 100 µM (inactive)	> 100 µM (inactive)	> 100 µM (inactive)	> 100 µM (inactive)	> 100 µM (inactive)	> 100 µM (inactive)	> 100 µM (inactive)	> 100 µM (inactive)	> 100 µM (inactive)	
Nn1c(S)nnc1NNC(=O)C(=O)Nc1cc(Cl)c(Cl)cc1Cl	> 100 µM (inactive)	> 100 µM (inactive)		> 100 µM (inactive)		> 100 µM (inactive)	> 100 µM (inactive)	> 100 µM (inactive)		> 100 µM (inactive)	> 100 µM (inactive)	> 100 µM (inactive)	15.5 µM (inactive)	> 100 µM (inactive)	> 100 µM (inactive)	> 100 µM (inactive)
[N-]=[N+]=CC(=O)C1(C(=O)C=[N+]=[N-])CC1	> 100 µM (inactive)	> 100 µM (inactive)	> 100 µM (inactive)	> 100 µM (inactive)	> 100 µM (inactive)	> 100 µM (inactive)	> 100 µM (inactive)	> 100 µM (inactive)	> 100 µM (inactive)	> 100 µM (inactive)	> 100 µM (inactive)	> 100 µM (inactive)	> 100 µM (inactive)		> 100 µM (inactive)	
COc1ccc2c(CCNS(=O)(=O)c3ccccc3)c(C(C)=O)[nH]c2c1[N+](=O)[O-]	77.8 µM (inactive)	> 100 µM (inactive)	> 100 µM (inactive)	> 100 µM (inactive)	> 100 µM (inactive)	65.2 µM (inactive)	63.7 µM (inactive)	31.8 µM (inactive)	> 100 µM (inactive)			> 100 µM (inactive)		48.5 µM (inactive)	> 100 µM (inactive)	
O=C(CC(=O)Nc1cccc(Cl)c1)NNCC(=O)Nc1nnc(-c2ccccc2)s1	16.4 µM (inactive)	> 100 µM (inactive)	25.7 µM (inactive)	> 100 µM (inactive)	34.9 µM (inactive)	20.8 µM (inactive)	> 100 µM (inactive)	> 100 µM (inactive)	> 100 µM (inactive)	45.8 µM (inactive)	26.4 µM (inactive)	> 100 µM (inactive)	9.38 µM (inactive)	62.4 µM (inactive)	45 µM (inactive)	
COC(=O)c1ccc(OCc2ccc3oc(=O)c(-c4ccccc4)nc3c2)cc1	28.9 µM (inactive)	33.9 µM (inactive)	28.4 µM (inactive)		22.9 µM (inactive)	> 100 µM (inactive)	> 100 µM (inactive)	> 100 µM (inactive)	> 100 µM (inactive)	> 100 µM (inactive)		> 100 µM (inactive)	> 100 µM (inactive)		> 100 µM (inactive)	
COc1ccc(-c2cc(Cc3cccs3)c(=O)[nH]n2)cc1	> 100 µM (inactive)	> 100 µM (inactive)		> 100 µM (inactive)		> 100 µM (inactive)	> 100 µM (inactive)	> 100 µM (inactive)	> 100 µM (inactive)	19 µM (inactive)	> 100 µM (inactive)	> 100 µM (inactive)	29.5 µM (inactive)	56.9 µM (inactive)	82 µM (inactive)	49.9 µM (inactive)
CC(C)C(Nc1c2ccccc2[n+]([O-])c2ccccc12)C(=O)O (centres undefined)	> 100 µM (inactive)	52.5 µM (inactive)	26.2 µM (inactive)	> 100 µM (inactive)	10 µM (inactive)	53.2 µM (inactive)	> 100 µM (inactive)		84.9 µM (inactive)	34.2 µM (inactive)	> 100 µM (inactive)	61.1 µM (inactive)	58.9 µM (inactive)	57.3 µM (inactive)	55.5 µM (inactive)	
